According to ChEMBL document CHEMBL1201862, “PubChem BioAssay data set” (2004):
Where “and” joins values, the source holds several entries; their conditions need not be identical. Equal values may be shown once. Calls of active or inactive are those of the source.

What was measured:
[1] = target: T1, Leucine aminopeptidase (Plasmodium falciparum 3D7, UniProt Q8IL11); experiment: P. falciparum M17LAP inhibitors, primary screen, biochemical, fluorogenic H-Leu-NHMec substrate, 1536-well (AID 1619); type: functional
T1 sequence (Q8IL11 whole entry): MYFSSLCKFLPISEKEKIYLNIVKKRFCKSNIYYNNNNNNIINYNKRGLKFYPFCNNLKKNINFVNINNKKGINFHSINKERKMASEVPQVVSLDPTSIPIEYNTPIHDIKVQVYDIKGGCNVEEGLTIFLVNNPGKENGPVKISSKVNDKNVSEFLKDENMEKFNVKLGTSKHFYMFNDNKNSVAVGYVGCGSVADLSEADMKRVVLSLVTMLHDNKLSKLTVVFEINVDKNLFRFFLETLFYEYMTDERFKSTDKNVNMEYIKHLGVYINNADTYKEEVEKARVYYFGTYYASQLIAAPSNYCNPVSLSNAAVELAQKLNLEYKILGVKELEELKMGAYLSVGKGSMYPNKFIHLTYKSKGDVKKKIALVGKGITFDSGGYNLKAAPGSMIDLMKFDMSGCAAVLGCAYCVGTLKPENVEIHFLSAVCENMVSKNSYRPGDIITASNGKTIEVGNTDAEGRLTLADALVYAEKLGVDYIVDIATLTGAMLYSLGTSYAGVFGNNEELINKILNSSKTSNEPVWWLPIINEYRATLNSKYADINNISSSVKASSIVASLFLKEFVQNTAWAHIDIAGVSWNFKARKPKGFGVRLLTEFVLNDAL

[2] = target: T2, Bcl-2-like protein 10 (Homo sapiens, UniProt Q9HD36); experiment: displacers of TR3 peptide from Bcl-B, primary screen, selectivity assay for Bfl-1 inhibitor project, biochemical, fluorescence polarization, FITC-TR3 peptide (AID 748);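 note: fluorescence polarization from a fluorescein-labelled TR3 peptide binding purified Bcl-B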
T2 sequence (Q9HD36 whole entry): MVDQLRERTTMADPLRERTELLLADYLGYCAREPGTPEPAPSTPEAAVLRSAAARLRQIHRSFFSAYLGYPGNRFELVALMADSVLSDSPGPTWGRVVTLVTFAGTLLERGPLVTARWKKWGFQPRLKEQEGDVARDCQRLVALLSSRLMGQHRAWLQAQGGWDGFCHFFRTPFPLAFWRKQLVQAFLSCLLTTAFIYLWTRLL

[3] = target: Alkaline phosphatase, placental type (Homo sapiens, UniProt P05187); experiment: PLAP enzyme inhibitors, confirmation, biochemical, luminescence (AID 1512); type: functional
[4] = target: Large T antigen (Simian virus 40, UniProt P03070); type: functional, Betapolyomavirus macacae;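 note: Confirmatory-stage PubChem screen for compounds that inhibit SV40 T antigen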
[5] = target: T3, Alkaline phosphatase, tissue-nonspecific isozyme (Homo sapiens, UniProt P05186); experiment: human TNAP enzyme inhibitors, SAR follow-up, biochemical, luminescent, dose response (AID 1056)
T3 sequence (P05186 whole entry): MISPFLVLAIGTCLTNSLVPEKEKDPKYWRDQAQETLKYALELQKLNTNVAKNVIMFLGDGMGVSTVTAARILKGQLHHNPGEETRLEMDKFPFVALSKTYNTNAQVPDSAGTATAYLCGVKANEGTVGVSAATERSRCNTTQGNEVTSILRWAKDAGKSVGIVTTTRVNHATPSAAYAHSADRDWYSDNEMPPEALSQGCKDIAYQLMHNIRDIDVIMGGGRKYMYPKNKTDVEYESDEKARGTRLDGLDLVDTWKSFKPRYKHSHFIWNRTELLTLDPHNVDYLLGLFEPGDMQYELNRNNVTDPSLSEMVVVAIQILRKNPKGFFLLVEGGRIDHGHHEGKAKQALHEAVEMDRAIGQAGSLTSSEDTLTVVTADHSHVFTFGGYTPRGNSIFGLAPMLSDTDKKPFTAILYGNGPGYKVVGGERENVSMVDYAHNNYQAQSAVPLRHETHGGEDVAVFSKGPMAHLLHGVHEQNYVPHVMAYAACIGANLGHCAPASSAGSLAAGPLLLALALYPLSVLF

[6] = growth suppression of beta-catenin-knockout colon cells, dose response, cell-based, HCT116, human colon tumor (AID 1045); type: functional;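 note: HCT116 colon tumor cells with beta catenin knocked out; cells exposed to compound for 60 hours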
[7] = test system: Saccharomyces cerevisiae; experiment: NALP1 inhibitor project selectivity study, Caspase-1/ASC signal blockade IC50 in S. cerevisiae (AID 488863); type: functional, organism-based
[8] = target: NACHT, LRR and PYD domains-containing protein 1 (Homo sapiens, UniProt Q9C000); experiment: NALP1 inhibitors in yeast, dose response, luminescent (AID 488860); type: functional
[9] = target: T4, Replicative DNA helicase DnaB (Mycobacterium tuberculosis, UniProt P9WMR3); experiment: DnaB intein splicing inhibitors, dose response, biochemical, cell-free fluorescence (AID 449749); type: functional
T4 sequence (P9WMR3 whole entry): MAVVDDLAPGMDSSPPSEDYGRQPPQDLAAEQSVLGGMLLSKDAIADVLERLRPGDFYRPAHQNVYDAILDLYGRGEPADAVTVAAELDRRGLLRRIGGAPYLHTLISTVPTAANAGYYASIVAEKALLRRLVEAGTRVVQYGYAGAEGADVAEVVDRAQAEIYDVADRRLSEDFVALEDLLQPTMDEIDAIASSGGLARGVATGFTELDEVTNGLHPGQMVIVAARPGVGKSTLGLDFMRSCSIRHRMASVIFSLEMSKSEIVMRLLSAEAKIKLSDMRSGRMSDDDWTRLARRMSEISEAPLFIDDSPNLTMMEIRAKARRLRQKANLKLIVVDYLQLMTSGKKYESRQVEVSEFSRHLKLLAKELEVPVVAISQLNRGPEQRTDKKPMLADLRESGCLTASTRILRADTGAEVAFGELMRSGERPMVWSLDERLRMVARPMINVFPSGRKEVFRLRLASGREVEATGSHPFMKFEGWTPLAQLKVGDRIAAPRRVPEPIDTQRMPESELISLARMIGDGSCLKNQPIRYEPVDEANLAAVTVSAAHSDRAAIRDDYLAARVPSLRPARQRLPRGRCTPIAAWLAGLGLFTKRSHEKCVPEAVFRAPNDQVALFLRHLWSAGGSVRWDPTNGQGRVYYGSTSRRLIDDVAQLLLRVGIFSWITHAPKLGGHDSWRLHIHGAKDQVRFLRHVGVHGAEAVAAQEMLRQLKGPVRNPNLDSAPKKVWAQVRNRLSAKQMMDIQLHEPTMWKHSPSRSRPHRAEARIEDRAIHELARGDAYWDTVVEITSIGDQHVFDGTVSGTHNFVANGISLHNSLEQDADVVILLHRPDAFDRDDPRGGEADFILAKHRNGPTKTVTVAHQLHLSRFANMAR

[10] = growth suppression of PTEN-null colon cells, dose response, cell-based, HCT116 PTEN knockout (AID 1047); type: functional;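 note: HCT116 colon tumor cells with PTEN knocked out; cells exposed to compound for 60 hours before readout; potency for loss of cell viability measured by luminescence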
[11] = target: T5, Bifunctional protein GlmU (Mycobacterium tuberculosis, UniProt P9WMN3); experiment: Inhibitors of Mycobacterial Glucosamine-1-phosphate acetyl transferase (GlmU). Secondary screen.; design: species or system Mycobacterium tuberculosis H37Rv
T5 sequence (P9WMN3 whole entry): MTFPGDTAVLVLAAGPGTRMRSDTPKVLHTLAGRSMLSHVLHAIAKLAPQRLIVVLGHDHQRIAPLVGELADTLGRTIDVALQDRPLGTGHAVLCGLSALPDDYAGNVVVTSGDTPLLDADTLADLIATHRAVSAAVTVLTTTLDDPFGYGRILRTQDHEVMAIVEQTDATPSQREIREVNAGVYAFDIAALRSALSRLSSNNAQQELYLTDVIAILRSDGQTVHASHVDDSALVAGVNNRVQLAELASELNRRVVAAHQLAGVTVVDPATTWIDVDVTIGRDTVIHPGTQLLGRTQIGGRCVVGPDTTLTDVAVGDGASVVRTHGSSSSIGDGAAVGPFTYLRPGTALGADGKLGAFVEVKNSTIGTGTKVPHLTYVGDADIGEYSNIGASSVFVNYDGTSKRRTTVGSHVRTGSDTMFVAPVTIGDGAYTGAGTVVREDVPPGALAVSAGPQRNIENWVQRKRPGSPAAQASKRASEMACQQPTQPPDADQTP

[12] = target: T6, Protein RecA (Mycobacterium tuberculosis, UniProt P9WHJ3); experiment: Fluorescence Cell-Free Homogeneous Dose Retest to Identify Inhibitors of RecA-Intein Splicing Activity. [Related pubchem assays (depositor defined):AID2097, AID2223, AID489010, AID492950]; type: functional
T6 sequence (P9WHJ3 whole entry): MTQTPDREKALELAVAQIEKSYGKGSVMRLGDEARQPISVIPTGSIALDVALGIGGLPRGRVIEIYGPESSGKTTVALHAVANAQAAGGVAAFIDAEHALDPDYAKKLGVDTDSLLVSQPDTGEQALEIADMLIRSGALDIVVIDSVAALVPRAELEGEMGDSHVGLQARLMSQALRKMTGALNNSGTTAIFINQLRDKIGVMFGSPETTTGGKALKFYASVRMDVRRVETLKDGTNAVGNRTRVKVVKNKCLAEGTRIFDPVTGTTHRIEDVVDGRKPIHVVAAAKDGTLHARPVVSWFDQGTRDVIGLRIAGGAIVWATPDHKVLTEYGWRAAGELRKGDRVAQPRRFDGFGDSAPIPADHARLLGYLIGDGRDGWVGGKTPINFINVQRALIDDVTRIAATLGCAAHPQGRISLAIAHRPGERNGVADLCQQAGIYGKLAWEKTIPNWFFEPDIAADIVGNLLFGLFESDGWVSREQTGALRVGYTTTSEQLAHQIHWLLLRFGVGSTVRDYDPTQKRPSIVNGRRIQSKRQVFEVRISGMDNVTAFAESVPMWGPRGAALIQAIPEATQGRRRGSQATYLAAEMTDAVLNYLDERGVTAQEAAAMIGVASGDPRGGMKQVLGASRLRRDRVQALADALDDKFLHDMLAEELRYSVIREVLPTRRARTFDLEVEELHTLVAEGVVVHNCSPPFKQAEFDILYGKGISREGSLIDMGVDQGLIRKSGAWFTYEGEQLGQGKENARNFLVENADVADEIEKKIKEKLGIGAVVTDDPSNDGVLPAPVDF

[13] = target: T7, Heat shock factor protein 1 (Mus musculus, UniProt P38532); experiment: HSF1 potentiators in luciferase reporter cells, confirmation, cell-based, NIH3T3, luminescence, dose retest (AID 435004); type: functional;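 note: stress induced by proteasome inhibitor MG132 added 30 min after compound; luciferase reporter driven by HSF1 response element in NIH3T3 cells; actives raise luminescence as potentiators of the MG132 stress response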
T7 sequence (P38532 whole entry): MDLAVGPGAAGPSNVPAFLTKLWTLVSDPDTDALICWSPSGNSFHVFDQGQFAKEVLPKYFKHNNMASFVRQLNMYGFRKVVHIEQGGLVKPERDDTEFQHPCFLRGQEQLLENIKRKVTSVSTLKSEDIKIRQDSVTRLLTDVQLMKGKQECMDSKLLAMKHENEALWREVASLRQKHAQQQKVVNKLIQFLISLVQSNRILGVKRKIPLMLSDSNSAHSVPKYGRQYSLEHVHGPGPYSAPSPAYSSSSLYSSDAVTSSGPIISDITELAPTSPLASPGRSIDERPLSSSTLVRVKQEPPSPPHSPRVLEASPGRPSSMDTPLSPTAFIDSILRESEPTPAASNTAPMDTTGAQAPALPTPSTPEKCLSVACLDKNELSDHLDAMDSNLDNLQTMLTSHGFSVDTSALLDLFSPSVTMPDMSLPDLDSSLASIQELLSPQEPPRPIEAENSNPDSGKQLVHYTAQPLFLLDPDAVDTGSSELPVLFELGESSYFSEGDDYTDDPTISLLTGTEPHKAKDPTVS

[14] = target: CAAX prenyl protease 2 (Saccharomyces cerevisiae S288c, UniProt Q03530); type: biochemical
Sequence of CAAX prenyl protease 2 (Q03530 whole entry): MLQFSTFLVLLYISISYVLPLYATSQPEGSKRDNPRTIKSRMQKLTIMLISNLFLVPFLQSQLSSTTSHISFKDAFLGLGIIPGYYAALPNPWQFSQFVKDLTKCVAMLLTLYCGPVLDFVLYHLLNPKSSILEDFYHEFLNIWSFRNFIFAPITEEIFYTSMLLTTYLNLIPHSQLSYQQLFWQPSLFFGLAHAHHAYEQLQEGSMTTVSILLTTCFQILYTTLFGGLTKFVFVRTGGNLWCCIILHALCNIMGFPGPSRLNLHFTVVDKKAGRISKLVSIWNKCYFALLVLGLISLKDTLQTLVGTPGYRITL

Sequence of Alkaline phosphatase, placental type (P05187 whole entry): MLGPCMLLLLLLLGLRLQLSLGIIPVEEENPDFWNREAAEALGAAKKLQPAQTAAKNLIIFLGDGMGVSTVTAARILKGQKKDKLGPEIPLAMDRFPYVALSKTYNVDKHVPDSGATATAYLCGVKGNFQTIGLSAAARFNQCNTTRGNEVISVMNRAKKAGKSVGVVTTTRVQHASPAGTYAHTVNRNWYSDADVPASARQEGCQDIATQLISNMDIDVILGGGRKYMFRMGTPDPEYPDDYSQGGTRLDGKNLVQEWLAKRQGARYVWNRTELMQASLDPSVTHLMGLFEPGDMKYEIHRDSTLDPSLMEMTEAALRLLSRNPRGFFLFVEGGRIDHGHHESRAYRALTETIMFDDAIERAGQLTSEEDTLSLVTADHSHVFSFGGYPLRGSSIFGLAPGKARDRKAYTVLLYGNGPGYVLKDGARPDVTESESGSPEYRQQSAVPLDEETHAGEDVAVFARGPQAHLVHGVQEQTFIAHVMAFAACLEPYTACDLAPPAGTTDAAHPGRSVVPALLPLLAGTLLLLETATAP
Sequence of Large T antigen (P03070 whole entry): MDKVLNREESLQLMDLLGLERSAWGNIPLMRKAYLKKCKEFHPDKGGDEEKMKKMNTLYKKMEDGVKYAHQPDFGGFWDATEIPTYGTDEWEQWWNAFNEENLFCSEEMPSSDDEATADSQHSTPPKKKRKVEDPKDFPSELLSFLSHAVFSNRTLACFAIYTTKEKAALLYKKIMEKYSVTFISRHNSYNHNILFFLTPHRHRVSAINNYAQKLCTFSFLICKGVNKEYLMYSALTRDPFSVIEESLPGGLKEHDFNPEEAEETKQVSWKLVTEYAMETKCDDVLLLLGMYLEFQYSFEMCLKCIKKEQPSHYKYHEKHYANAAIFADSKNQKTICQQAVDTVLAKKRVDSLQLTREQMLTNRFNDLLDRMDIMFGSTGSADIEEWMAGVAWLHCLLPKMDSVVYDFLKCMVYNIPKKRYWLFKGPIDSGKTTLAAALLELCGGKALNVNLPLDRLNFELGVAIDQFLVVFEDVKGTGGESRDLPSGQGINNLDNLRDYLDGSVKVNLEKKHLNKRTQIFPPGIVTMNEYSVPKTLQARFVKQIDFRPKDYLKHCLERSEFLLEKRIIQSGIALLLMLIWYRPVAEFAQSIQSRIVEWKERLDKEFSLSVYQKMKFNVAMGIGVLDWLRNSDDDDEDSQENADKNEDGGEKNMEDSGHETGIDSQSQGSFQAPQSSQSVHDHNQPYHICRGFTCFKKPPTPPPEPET
Sequence of NACHT, LRR and PYD domains-containing protein 1 (Q9C000 1-1212 limits assumed): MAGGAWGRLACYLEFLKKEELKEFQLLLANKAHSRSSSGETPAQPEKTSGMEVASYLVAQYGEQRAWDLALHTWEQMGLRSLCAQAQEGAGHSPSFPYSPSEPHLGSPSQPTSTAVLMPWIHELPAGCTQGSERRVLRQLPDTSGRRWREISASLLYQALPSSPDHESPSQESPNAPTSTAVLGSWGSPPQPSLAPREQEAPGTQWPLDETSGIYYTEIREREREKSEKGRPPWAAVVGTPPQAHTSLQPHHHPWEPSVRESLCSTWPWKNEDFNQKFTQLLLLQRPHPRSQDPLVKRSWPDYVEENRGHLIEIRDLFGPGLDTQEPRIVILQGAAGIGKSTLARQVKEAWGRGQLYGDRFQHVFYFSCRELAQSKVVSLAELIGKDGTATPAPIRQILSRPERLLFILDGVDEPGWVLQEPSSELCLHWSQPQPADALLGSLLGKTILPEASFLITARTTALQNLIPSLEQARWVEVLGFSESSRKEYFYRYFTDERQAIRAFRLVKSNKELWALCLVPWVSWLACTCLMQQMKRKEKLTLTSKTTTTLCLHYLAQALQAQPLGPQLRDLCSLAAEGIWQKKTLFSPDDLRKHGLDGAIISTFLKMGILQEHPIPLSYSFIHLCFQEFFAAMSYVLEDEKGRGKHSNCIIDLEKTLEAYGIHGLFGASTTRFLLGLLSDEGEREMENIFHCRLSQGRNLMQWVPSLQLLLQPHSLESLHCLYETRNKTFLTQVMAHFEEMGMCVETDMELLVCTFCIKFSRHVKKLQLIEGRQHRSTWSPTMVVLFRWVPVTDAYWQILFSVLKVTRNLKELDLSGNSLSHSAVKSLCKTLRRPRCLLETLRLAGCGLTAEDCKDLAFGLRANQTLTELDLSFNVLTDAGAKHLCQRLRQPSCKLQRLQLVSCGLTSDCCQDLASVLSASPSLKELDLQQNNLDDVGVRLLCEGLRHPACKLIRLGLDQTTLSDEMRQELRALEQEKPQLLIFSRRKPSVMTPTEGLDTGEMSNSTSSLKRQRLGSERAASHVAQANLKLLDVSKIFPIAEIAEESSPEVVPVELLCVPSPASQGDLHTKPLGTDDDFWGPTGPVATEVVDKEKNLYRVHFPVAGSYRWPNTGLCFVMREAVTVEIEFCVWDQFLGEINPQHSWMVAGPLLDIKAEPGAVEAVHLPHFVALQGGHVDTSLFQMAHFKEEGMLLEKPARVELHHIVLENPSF
Sequence of NACHT, LRR and PYD domains-containing protein 1 (Q9C000 1213-1473 limits assumed): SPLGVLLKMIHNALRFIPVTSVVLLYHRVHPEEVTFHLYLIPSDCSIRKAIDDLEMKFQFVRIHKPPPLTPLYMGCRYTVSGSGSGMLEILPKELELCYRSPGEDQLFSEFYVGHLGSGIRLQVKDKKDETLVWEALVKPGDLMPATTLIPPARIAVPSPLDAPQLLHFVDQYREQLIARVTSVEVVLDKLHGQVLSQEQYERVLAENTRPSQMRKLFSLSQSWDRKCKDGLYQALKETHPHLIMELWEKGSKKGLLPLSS

For `C=CCn1c(SCC(=O)c2ccc(O)c(O)c2)nnc1-c1ccccc1OC`, which IC50 [1] is on record?
The IC50 was 22.8 µM (active).

What about the IC50 [2] of the same molecule?
The IC50 was > 100 µM (inactive).

What about the IC50 [3] of the same molecule?
Its IC50 is 2.6 µM (active) and 2.79 µM (active).

And the IC50 [4]?
The IC50 was 14.7 µM (active).

What about the IC50 [5] of the same molecule?
Its IC50 is > 100 µM (inactive) and 44.8 µM (active).

With `Cn1cnc([N+](=O)[O-])c1S(=O)(=O)c1ccc(Cl)cc1` as the molecule, how does the EC50 [6] read?
Its EC50 is 5.88 µM (active).

What about the IC50 [7] of the same molecule?
Its IC50 is 19.8 µM (active).

What about the IC50 [8] of the same molecule?
The IC50 was 17.7 µM (active).

What about the AC50 [9] of the same molecule?
The AC50 was 19.5 µM (active).

What about the EC50 [10] of the same molecule?
The EC50 was 6.79 µM (active).

And the IC50 [11]?
The IC50 was 101 µM (active).

And the EC50 [12]?
Its EC50 is 8.29 µM (active).

What about the EC50 [13] of the same molecule?
The EC50 was 17.8 µM (active).

With `O=C(c1cnc(Cl)c(Cl)c1)N1CCC(Cc2ccccc2)CC1` as the molecule, how does the AC50 [14] read?
Its AC50 is 18.2 µM (active).
